How the values were obtained:
brown adipocytes [1] = experiment: Immunoblot of PKA downstream proteins (P-HSL, P-CREB) in brown adipocytes; assay type: cell-based, mouse
Protocol: (§1) Adipocyte precursor cells capable of differentiating into brown adipocytes were isolated from mouse brown adipose tissue. Cells were cultured in Dulbecco's modified Eagle's medium (Welgene, LM001-07) containing 10% fetal bovine serum (FBS, Gibco, 16000044) and 1% Penicillin Streptomycin (Welgene, LS202-02) at 37° C. in a humidified atmosphere with 5% CO2. When the cells reached about 100% confluency, the cells were exposed to a differentiation medium supplemented with 2.5 mM isobutyl methylxanthine (IBMX, Cayman, I5879), 0.125 mM indomethacin (Cayman, 70270), 1 μM dexamethasone (Cayman), 1 μg/mL insulin (Sigma, I9278), and 1 nM triiodothyronine (T3, Cayman, 6028) for 3 days for adipogenesis. Then, the cells were maintained in a growth medium containing 1 μg/mL insulin and 1 nM triiodothyronine (T3) for 3 days.
In the case of Western blots, the primary antibodies used for Western blots are summarized in [Table 2] above. An anti-rabbit horseradish peroxidase antibody (1:3000, Thermo Fisher, 31460) and an anti-mouse horseradish peroxidase antibody (1:3000, Jackson, 115-035-174) were used as secondary antibodies. All antibodies were diluted in a blocking buffer (5% skimmed milk or 5% bovine serum albumin in TBST). Western blot images were acquired using a Fusion Solo chemiluminescence imaging system (Vilber Lourmat) and analyzed with Evolution Capt software (version 17.03). NIH ImageJ software was used for quantification.

C57BL/6 male mice = experiment: Indirect calorimetry (PhenoMaster); assay type: in vivo, mouse; settings: 1 mg·kg-1day-1 intraperitoneally, 10 days
Protocol: 6-week-old C57BL/6 male mice and CIDEA reporter mice were used according to the approved protocols by Institutional Animal Care and Use Committees of Seoul National University (SNU-201107-1, SNU-201221-3) for in vivo experiments. The mice were housed under a 12 h-light/12 h-dark cycle condition with free access to a normal chow diet (NCD, Purina Lab, 38057, protein: 24.52% calories, carbohydrate: 63.07% calories, and fat: 12.41% calories) and water at 22±1° C. The mice were treated intraperitoneally with LJ-4378 (1 mg·kg-1day-1) dissolved in 0.2% DMSO (diluted in PBS) for 10 days.
Indirect calorimetry was performed using a PhenoMaster (TSE Systems) to measure expenditure (EE), VO2, VCO2, activity, and food intake. Body components were measured by nuclear magnetic resonance scanning Echo MRI-700 (Echo Medical Systems).

brown adipocytes [2] = experiment: MitoTracker staining; assay type: cell-based, mouse; settings: 0.1 μM, FIG. 4B
Protocol: The cells were exposed to MitoTracker™ Red CMXRos (1:3000, Invitrogen, M7512) at 37° C. for 15 minutes to stain mitochondria, and then fixed in 4% paraformaldehyde (PFA, Sigma, 158127). Images were acquired with an LSM800 confocal microscope (Zeiss, Germany) and analyzed with Zen software (version 3.0).

CIDEA reporter mice = experiment: qPCR of brown adipocyte markers in brown adipose tissue; assay type: in vivo, mouse; settings: BAT, 1 mg kg-1/day, 10 days
Protocol: Mice were treated with vehicle (CTL), LJ-4378 (LJ, 1 mg kg-1/day), […] (CGS21680, 1 mg kg-1/day), or A3 antagonist (LJ-4433, 1 mg kg-1/day) for 10 days. (A-B) Representative bioluminescence in dorsal and lateral positions (n=3, mean±SEM, ** p<0.01, **** p<0.0001). (C) Representative ex vivo fluorescence image and quantification of fluorescence intensity of BAT and iWAT (n=3, mean±SEM, ** p<0.01, **** p<0.0001). (D) qPCR analysis of UCP1 and CIDEAM RNA expression levels of brown adipose tissue (BAT) (n=3, mean±SEM, * p<0.05, ** p<0.01, *** p<0.001).
qPCR analysis was performed to investigate the adenosine receptor expression levels in brown adipocytes differentiated from immortalized brown adipocyte precursor cells. Primers used for the qPCR analysis are listed in the following [Table 3].

A3AR = target: T1, A3AR (Homo sapiens, UniProt P0DMS8); experiment: cAMP assay at A3AR using full agonist Cl-IB-MECA; assay type: cell-based; settings: FIG. 1C
T1 sequence (P0DMS8 1-318): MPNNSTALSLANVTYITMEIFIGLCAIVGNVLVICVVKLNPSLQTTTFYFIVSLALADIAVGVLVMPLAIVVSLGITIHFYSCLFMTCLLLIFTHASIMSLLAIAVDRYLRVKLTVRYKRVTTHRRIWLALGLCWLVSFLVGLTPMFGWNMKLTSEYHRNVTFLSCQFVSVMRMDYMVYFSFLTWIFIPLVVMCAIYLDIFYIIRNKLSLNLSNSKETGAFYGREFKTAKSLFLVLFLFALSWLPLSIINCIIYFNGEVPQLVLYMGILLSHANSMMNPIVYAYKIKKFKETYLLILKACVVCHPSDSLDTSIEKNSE

brown adipocytes [3] = experiment: Lipolysis: glycerol and free fatty acid levels in conditioned medium; assay type: cell-based, mouse; settings: 0.1 μM, 24 hours
Protocol: as §1
The free fatty acid (FFA) levels in the medium were measured using an NEFA reagent (WAKO, 436-91693) according to the manufacturer's product protocol.
Glycerol and free fatty acid (FFA) levels in a medium were measured using a glycerol reagent (Sigma Aldrich, F6428) and a NEFA reagent (WAKO, 436-91693) according to the manufacturer's product protocols.

BAT, iWAT, and gWAT = experiment: TTC staining of adipose tissue (ex vivo electron transport activity); assay type: in vivo, mouse; settings: mice, 1 mg·kg-1day-1 intraperitoneally, 10 days
Protocol: 6-week-old C57BL/6 male mice and CIDEA reporter mice were used according to the approved protocols by Institutional Animal Care and Use Committees of Seoul National University (SNU-201107-1, SNU-201221-3) for in vivo experiments. The mice were housed under a 12 h-light/12 h-dark cycle condition with free access to a normal chow diet (NCD, Purina Lab, 38057, protein: 24.52% calories, carbohydrate: 63.07% calories, and fat: 12.41% calories) and water at 22±1° C. […] Ex vivo electron transport activity associated with mitochondrial oxidative phosphorylation was evaluated by monitoring the reduction of 0.1% triphenyl tetrazolium chloride (TTC, Sigma, T8877).

brown adipocytes [4] = experiment: Oxygen consumption rate (XFp analyzer); assay type: cell-based, mouse; settings: 0.1 μM, 24 hours
Protocol: Oxygen consumption rate (OCR) was measured using an XFp analyzer. Cells were cultured in XF DMEM basal medium (Agilent, 103575-100, pH 7.4) supplemented with 4 mM L-glutamine (Sigma, G8540) and 25 mM D-glucose (Sigma, G7021) at 37° C. The XFp Cell Mitochondrial Stress Test Kit (Agilent, 103010-100) was prepared and calculated sequentially with optimal final concentrations of 2.5 μM oligomycin, 0.5 μM FCCP and 0.5 μM rotenone/antimycin A and basal, maximal and proton leakage. Then, the OCR was normalized to protein concentration.

KB value at A3AR (A3AR): nM level
SMILES: CCCCC#Cc1nc(N)c2ncn([C@@H]3SC[C@@H](O)[C@H]3O)c2n1 [LJ-4378, 2-(6-amino-2-(hex-1-yn-1-yl)-9H-purin-9-yl)tetrahydrothiophene-3,4-diol]
P-CREB, fold increase (brown adipocytes [1]; 0.1 μM, 24 hours, FIG. 3D): 2.32±0.05 fold
P-HSL, fold increase (brown adipocytes [1]; 0.1 μM, 24 hours, FIG. 3D): 2.10±0.12 fold
P-HSL (serine 660) expression level, fold increase (brown adipocytes [1]; 10^−5, 4 hours): 6.87±0.69 fold
P-HSL (serine 660) expression level, fold increase (brown adipocytes [1]; 10^−7, 4 hours): 6.64±0.34 fold
P-HSL (serine 660) expression level, fold increase (brown adipocytes [1]; 10^−9 M, 4 hours): 3.03±0.21 fold
P-HSL (serine 660) expression level, fold increase (brown adipocytes [1]; 10^−11 M, 4 hours): 1.55±0.11 fold
increase of energy expenditure (C57BL/6 male mice): 17.0%
increase of oxygen consumption (C57BL/6 male mice): 17.8%
mitochondrial membrane potential (MitoTracker staining), fold increase (brown adipocytes [2]): 2.12±0.06 fold
Cidea mRNA level, fold increase (CIDEA reporter mice): 1.72±0.06 fold
Ucp1 mRNA level, fold increase (CIDEA reporter mice): 2.13±0.21 fold
free fatty acid (FFA) level, fold increase (brown adipocytes [3]; FIG. 2): 1.92±0.03 fold
glycerol level in conditioned medium, fold change (brown adipocytes [3]; FIG. 3B): 1.61±0.07 fold
FFA level in conditioned medium, fold change (brown adipocytes [3]; FIG. 3C): 1.59±0.1 fold
mitochondrial activity (TTC staining), fold increase in BAT (BAT, iWAT, and gWAT): 2.86±0.24 fold
mitochondrial activity (TTC staining), fold increase in gWAT (BAT, iWAT, and gWAT): 1.72±0.16 fold
mitochondrial activity (TTC staining), fold increase in iWAT (BAT, iWAT, and gWAT): 2.07±0.17 fold
increase of OCR related to ATP production (brown adipocytes [4]): 29.3%
increase of OCR related to basal (brown adipocytes [4]): 30.5%
increase of OCR related to maximal (brown adipocytes [4]): 49.1%
